Holding throughout (assay): inhibition of tumour cell growth, NCI panel, 48 h
The test system of assay [1] is SNB-75 CNS.
The test system of assay [2] is RXF 393 renal.
In assay [3] the test system is MALME-3M melanoma.
The test system of assay [4] is OVCAR-3 ovarian.
Assay [5] has as its system KM12 colon.
Assay [6] concerns SK-MEL-28 melanoma.
The subject of assay [7] is EKVX NSCLC.
The subject of assay [8] is DU-145 prostate.
Assay [9] relates to HT29 colon.
For assay [10], the system named is MDA-MB-435.

“And” between values parts separate entries of the source, which are not always exact repeats. Identical values can stand only once.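 All cell lines were grown in 96-well plates and treated with compound for 48 hours. Abbreviation: GI50, concentration required for 50% inhibition of growth. TGI: total growth inhibition.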 Where only a bound is given, the exact number is not on record here.

On to `O=C(c1cc(F)c(Cl)cc1Cl)N1N=C(c2ccccc2)CC1(O)c1ccccc1` (centres undefined), for which the GI50 in assay [1] is 20.7 µM; in [2] it was 23.6 µM; in assay [3], 25.5 µM; in assay [4], 18.9 µM; in assay [5] it was 20.1 µM; in [6], 16.2 µM. For the same molecule, the GI50 in [7] is 19.2 µM; in assay [8] it was 17.3 µM; in assay [9], 12.1 µM; in assay [10] it was 22.1 µM. In addition, the TGI came to 59.6 µM in assay [1]; 48.1 µM in assay [2]; 55.6 µM in assay [3]; 59.5 µM in assay [4]; 44.8 µM in assay [5]; 31.6 µM in [6]. Moreover, the TGI was determined as 65.5 µM in assay [7], 35.9 µM in assay [8], 25.3 µM in assay [9] and 49.4 µM in assay [10].

For `C[C@]12CC[C@H](O)CC1=CC[C@@H]1C2CC[C@]2(C)c3nn(-c4ccc(F)cc4)nc3CC12` (some centres undefined), the TGI in assay [1] was 74.4 µM; in assay [2], greater than 100 µM; in assay [3], greater than 100 µM; in assay [4], greater than 100 µM; in [5] it was greater than 100 µM; in assay [6] it was greater than 100 µM. In addition, the TGI in assay [7] was greater than 100 µM; in assay [8] it was greater than 100 µM; in [9] it was 73 µM; in assay [10] it was greater than 100 µM.

In the case of `c1ccc2[nH]c(SSc3nc4ncncc4[nH]3)nc2c1`, the GI50 was 13.1 µM in assay [1]; 32.1 µM in [2]; 2.01 µM in [3]; 0.579 µM in assay [4]; 3.85 µM in assay [5]; 27.8 µM in [6]. Besides, the GI50 in assay [7] was 25.9 µM; in assay [8], 0.674 µM; in [9], 2.58 µM; in [10], 0.446 µM. Also, the TGI in [1] is greater than 100 µM; in [2] it was greater than 100 µM; in assay [3], greater than 66.1 µM; in assay [4], greater than 100 µM; in assay [5], greater than 100 µM; in assay [6], greater than 100 µM. Besides, the TGI in assay [7], in assay [8], in assay [9] and in assay [10] was greater than 100 µM throughout.

In the case of `CCCN=C1Nc2ccccc2[C@@H]2N(C)c3ccccc3C(C)C[C@]12C` (some centres undefined), the TGI is 49.8 µM in assay [1]; 37.2 µM in assay [2]; 32.5 µM in [3]; 54.1 µM in assay [4]; 34.9 µM in assay [5]; 33.5 µM in [6]. Further, the TGI in assay [7] is greater than 100 µM; in assay [8] it was greater than 100 µM; in assay [9], 27.8 µM; in [10], 34 µM.

With `CC1(C)NCCC[C@]2(C)[C@H]3C=CC4=C5C[C@](C)(CO)CC[C@]5(C)CC[C@@]4(C)[C@]3(C)CC[C@@H]12`, the GI50 in assay [1] is 3.43 µM; in [2], 1.84 µM; in [3], 2.64 µM; in assay [4], 2.69 µM; in assay [5], 6.09 µM; in [6] it was 5.87 µM. Besides, the GI50 in assay [7] was 2.77 µM; in assay [8], 2.25 µM; in assay [9], 3.25 µM; in [10], 3.76 µM. Also, the TGI was determined as 14.8 µM in [1]; 4.15 µM in [2]; 8.01 µM in assay [3]; 7.06 µM in assay [4]; 20.3 µM in [5]; 18.4 µM in [6]. For the same molecule, the TGI in assay [7] amounted to 8.27 µM; in assay [8], 5.02 µM; in [9], 13.8 µM; in assay [10], 14 µM.

Turning to `O=[N+]([O-])c1ccc(-c2nc(N(CCO)CCO)c3ccccc3n2)o1`, the GI50 in [1] is 0.16 µM; in assay [2] it was 0.159 µM; in assay [3], 0.155 µM; in assay [4], 0.235 µM; in assay [5], 0.216 µM; in assay [6] it was 0.877 µM. Further, the GI50 was 0.464 µM in assay [7], 0.0352 µM in assay [8], 0.184 µM in assay [9] and 0.309 µM in assay [10]. Also, the TGI in assay [1] turned out to be 0.588 µM; in assay [2], 0.34 µM; in assay [3], 0.373 µM; in assay [4], 1.43 µM; in [5], 0.862 µM; in [6] it was 2.41 µM. The TGI in assay [7] worked out at 4.31 µM; in assay [8] it was 0.303 µM; in assay [9] it was 3.07 µM; in assay [10] it was 1.27 µM.

Turning to `COc1ccc(CNc2nc3cc(N)cc(N)c3nc2-c2ccccc2)cc1OC`, the GI50 is 14.1 µM in assay [1]; 12.7 µM in [2]; 3.98 µM in assay [3]; 1.31 µM in assay [4]; 12.8 µM in [5]; 15 µM in [6]. For the same molecule, the GI50 in assay [7] was 13 µM; in [8], 41 µM; in assay [9], 7.26 µM; in assay [10], 2.07 µM. Besides, the TGI in [1] is 37.4 µM; in assay [2], greater than 93.5 µM; in [3] it was 14.4 µM; in assay [4], 3.33 µM; in assay [5] it was 28.4 µM; in assay [6], 33.8 µM. For the same molecule, the TGI in [7] was 44.6 µM; in assay [8], greater than 93.6 µM; in [9], 46.2 µM; in [10] it was 4.05 µM.

As to `OCC(O)C(O)C(O)C1SC(c2ccccc2)=NN1c1ccccc1` (centres undefined), the TGI in assay [1] was 35.5 µM; in assay [2], 47.9 µM; in [3], greater than 100 µM; in assay [4] it was greater than 87.6 µM; in assay [5], greater than 100 µM; in assay [6] it was greater than 100 µM. In addition, the TGI in assay [7], in assay [8], in [9] and in assay [10] was greater than 100 µM each time.

Consider `C/C=C(\C)C(=O)N[C@H]1[C@@H](OC(C)=O)C[C@]2(C)C3CC[C@@]4(C)C(CC[C@@H]4C(C)N(C)C)C3CCC2[C@H]1O` (some centres undefined), for which the GI50 in assay [1] was 5.86 µM; in [2], 1.71 µM; in assay [3], 2.03 µM; in [4] it was 5.56 µM; in assay [5], 4.35 µM; in [6], 1.83 µM. Also, the GI50 in assay [7] is 5.63 µM; in assay [8] it was 6.4 µM; in [9] it was 0.738 µM; in assay [10], 2.27 µM. The TGI in [1] is 20.8 µM; in [2], 14.4 µM; in assay [3] it was 6.43 µM; in assay [4], 19.1 µM; in assay [5], 15.5 µM; in assay [6], 3.67 µM. Besides, the TGI is 31.4 µM in assay [7], 21.3 µM in assay [8], 6.55 µM in assay [9] and 6.78 µM in assay [10].

As to `Fc1ccc(Oc2nccc(-c3c(-c4ccc(F)cc4)ncn3C3CCNCC3)n2)cc1`, the GI50 in assay [1], in assay [2], in [3], in assay [4], in [5] and in assay [6] was greater than 25 µM in each case. Besides, the GI50 is greater than 25 µM in assay [7], greater than 25 µM in [8], 14.7 µM in assay [9] and greater than 25 µM in assay [10]. In addition, the TGI in [1], in [2], in assay [3], in assay [4], in assay [5] and in assay [6] was greater than 25 µM throughout. For the same molecule, the TGI in [7], in assay [8], in assay [9] and in assay [10] was greater than 25 µM in each case.

In the case of `Cc1ccccc1C(=O)C#Cc1cn(C2CC(O)C(CO)O2)c(=O)[nH]c1=O` (centres undefined), the TGI in assay [1] was greater than 100 µM; in assay [2] it was greater than 100 µM; in [3] it was 35.1 µM; in assay [4], greater than 100 µM; in assay [5] it was greater than 100 µM; in [6] it was greater than 100 µM. Besides, the TGI in assay [7], in [8], in assay [9] and in [10] was greater than 100 µM each time.

On to `CC1(C)COCN1COC1CCCCC1`, for which the TGI in assay [1], in [2], in assay [3], in assay [4], in assay [5] and in assay [6] was greater than 100 µM in each case. For the same molecule, the TGI in assay [7], in assay [8], in assay [9] and in assay [10] was greater than 100 µM each time.

For `O=C1/C(=C/c2ccc(O)c([N+](=O)[O-])c2)CCC/C1=C\c1ccc(O)c([N+](=O)[O-])c1`, the TGI is 6.65 µM in assay [1]; 19.6 µM and 5.91 µM in [2]; 26.3 µM and 26.2 µM in [3]; 17.1 µM and > 100 µM in assay [4]; 18.4 µM and 9.42 µM in [5]; 20.3 µM and 45 µM in [6]. In addition, the TGI in assay [7] is 50 µM and 28.8 µM; in assay [8], 20.3 µM and 15.3 µM; in [9] it was 30.7 µM and 37.6 µM; in assay [10] it was 21.3 µM and 5.35 µM. For the same molecule, the GI50 in [2] was 1.53 µM; in [3] it was 12.3 µM; in [4], 2.54 µM; in assay [5], 1.97 µM; in assay [6] it was 19.9 µM; in [7] it was 15 µM. The GI50 in assay [8] is 2.99 µM; in assay [9], 19 µM; in assay [10] it was 1.53 µM.

As for `OC(C1=C/C(=C\c2ccncc2)c2ccccc21)c1ccncc1` (centres undefined), the TGI in assay [1] amounted to 24 µM; in assay [2], 30.6 µM; in assay [3], 38.3 µM; in assay [4], 31.7 µM; in assay [5] it was 35.1 µM; in assay [6] it was 34.6 µM. In addition, the TGI turned out to be 41.5 µM in assay [7], 62.2 µM in assay [8], 32.4 µM in [9] and 27.9 µM in [10].

For the molecule `O=C(NC1CC1)c1ccc(-c2nc3ccc4[nH]ncc4c3c3c2CCCC3)cc1`, the GI50 is 1.54 µM in [1]; 0.967 µM in [2]; 3.46 µM in [3]; 4.04 µM in assay [4]; 1.51 µM in [5]; 2.3 µM in assay [6]. Also, the GI50 was 1.33 µM in [7], 2.43 µM in [8], 2.05 µM in assay [9] and 1.38 µM in assay [10]. For the same molecule, the TGI in [1] is 4.87 µM; in [2], 4.03 µM; in assay [3] it was 11.6 µM; in assay [4], 15.8 µM; in [5], 9.65 µM; in assay [6] it was 12.1 µM. Besides, the TGI in [7] is 12.2 µM; in assay [8], 20.2 µM; in [9], greater than 50 µM; in assay [10], 5.02 µM.

For the molecule `CN(C)CCCN=C(N)N`, the TGI in [1], in assay [2], in assay [3], in assay [4], in assay [5] and in [6] was greater than 100 µM throughout. Also, the TGI in [7], in assay [8], in assay [9] and in assay [10] was greater than 100 µM throughout.

As for `CCN(CC)CCOc1ccc(Nc2ncc3cc(-c4ccc(O)cc4)c(=O)n(C)c3n2)cc1`, the GI50 in assay [1] was 0.0406 µM; in [2], 0.147 µM; in assay [3], 0.734 µM; in [4], 15.9 µM; in assay [5], 2.44 µM; in assay [6] it was 10.6 µM. Besides, the GI50 is 15.1 µM in assay [7], 12.9 µM in [8], 0.379 µM in [9] and 0.983 µM in assay [10]. The TGI in assay [1] was 13.7 µM; in [2], 1.67 µM; in [3], 2.44 µM; in assay [4], 31.2 µM; in assay [5] it was 17.1 µM; in assay [6], 27.6 µM. Also, the TGI in assay [7] amounted to 37.5 µM; in assay [8] it was 26.3 µM; in [9], 2.79 µM; in [10], 16.1 µM.

With `O=c1[nH]c2nccnc2c2c([N+](=O)[O-])cccc12`, the TGI in assay [1], in [2], in [3], in assay [4], in assay [5] and in assay [6] was greater than 100 µM throughout. For the same molecule, the TGI in assay [7], in assay [8], in [9] and in assay [10] was greater than 100 µM throughout.

(Values after PubChem BioAssay (NCI).)
